Data reported in US20260347399A1, “BRAIN PENETRATING PEPTIDES AND METHODS OF USE” (priority 2022, published 2026).
Ends that are not written are not given here.

How the values were obtained:
activated microglia = experiment: FAM-CVG colocalization with activated microglia in glioma; type: in vivo, mouse; details: FAM-labelled, i.v., 1 h; WT GBM, glioma edge and core
Procedure: WT GBM glioma-bearing mice were injected iv with FAM-labelled CVG peptide for 1 hour circulation. Mice were perfused and tissues of interest were snap-frozen in the vapor of liquid nitrogen. Immunofluorescent staining was carried out with the following antibodies: FAM, CD68, CD11b and CD206.

mouse brain [1] = experiment: In vivo play-off screen with 10 published CNS homing peptide-phages; details: phage pool i.v., 1 h; acid and detergent perfusion
Procedure: Play-off screen was carried out with 10 previously published BBB penetrating/CNS homing peptide-phages. […] Oligonucleotides were annealed and ligated into the phage genome using T7Select 415-1 cloning kit (Novagen) and the T7Select System Manual. Each peptide-phage was separately amplified in liquid bacterial culture, precipitated with PEG, recovered in PBS and titered. Phages were mixed in equimolar ratios and purified with CsCl-ultracentrifugation and dialysis. Titer of the play-off pool was determined and mice were intravenously injected with 1×10^10 pfu of phage pool. After one hour of circulation time, mice were perfused with acid buffer (500 mM NaCl, 0.1 M glycine, 1% BSA, pH2.5) and detergent buffer (1% NP40 in PBS), collected organs were homogenized and phage pools amplified for high-throughput sequencing.
Novel BBB penetrating and CNS homing peptide was identified in a step by step process including a phage play-off screens, alanine scanning mutagenesis and phage display with unique library. The first selection step included a phage play-off screen with ten previously published CNS homing peptides (Table 5). To ensure collecting BBB penetrating and CNS homing peptides, phage play-off pool was intravenously (iv) injected into the mice and perfusion was done with acid and detergent buffers to remove unbound phages and brake the endothelial layer of blood vessels. […]

mouse brain [2] = experiment: In vivo phage display with CX4CYX library
Procedure: In vivo phage display with CX4CYX library was performed in three selection rounds. Phage library was injected intravenously to Balb/c mice and allowed to circulate for one hour. After circulation, the animals were anesthetized and perfused intracardially with acid and detergent buffers. Brain and control organs were collected and homogenized in 1% NP40-LB. Bound phages were rescued by amplification in E. coli and their genomic DNA was sequenced by Ion Torrent next generation DNA sequencing system.
A novel phage library CX4CYX was constructed based on the alanine-leucine screen to find new brain homing peptides). This knowledge directed us to construct a novel phage library CX4CYX (X—any amino acid), where Cys1, Cys6 and Tyr7 remained in their intact positions, and the four amino acid variable-domain laid between the cysteines, and one amino acid variability after Tyr7. Three rounds of phage bio-panning was performed to allow enrichment of peptides in the brain. Again acid and detergent buffers were used for perfusion to remove non-specifically bound phages from the brain after systemic administration of phage library (round 1) and recovered brain phage pools (round 2 and 3). HTS reads from round 1 to round 3 indicated decent enrichment of in-frame peptides in the brain (Table 6).

mouse brain [3] = experiment: In vivo play-off of alanine-scan peptide-phages; details: 5×10^9 pfu phage mix i.v., 1 h, HTS
Procedure: To determine which amino acid positions are important for brain homing of Cerepep, in vivo play-off method was used. A pool of T7 peptide-phages was created, where each amino acid of Cerepep sequence was changed one-by-by to alanine and alanines were changed to leucines. These clones, original Cerepep peptide-phage clone and control insertless phage were mixed in equimolar ratio and 5×10^9 pfu of phage mix was injected i.v. into male Balb/C mice (n=2). Following 1 h circulation the animals were anesthetized and perfused with PBS. The prevalence of phage clones in the brain was determined by high throughput sequencing.
To determine which amino acid positions are important for brain homing of SERVISRAKLAAAL (SEQ ID NO:9), a pool of peptide-phage clones was compiled, where every amino acid position was one-by-one changed to alanine (alanines were changed to leucines). […] The phage mix was injected into mice and following a 1 h circulation the amount of different phage clones in the brain was determined using HTS. […]
Based on studies involving in vivo play-off analyses, it was determined that Arginines and isoleucine are crucial for the brain homing of Cerepep (CP) peptide. Every position of CP peptide was one-by one mutated to alanine (alanines were changed to leucines) and the brain homing of each mutated peptide-phage was assessed using in vivo play-off method (FIG. 7C). […]

FAM-labelled CVG peptide: 5(6)-carboxyfluorescein-labelled CVGTNCY peptide (not fully specified (N-terminus); cysteine pairing not given here; also: 5(6)-carboxyfluorescein label, position not given here)
colocalization with activated microglia markers CD68, CD11b and CD206 (activated microglia): colocalization with activated microglia markers CD68, CD11b and CD206 cells

CAGALCY [reference compound]
representation in the brain (HTS reads) (mouse brain [1]): highest representation in the brain | R1 reads (mouse brain [2]; round 1): 3 reads | R3 reads (mouse brain [2]; round 3): 880 reads | R3 > R1 (ratio of sequencing reads between round 3 and round 1) (mouse brain [2]; round 3 / round 1): 293

RRVISRAKLAAAL
brain homing / brain accumulation of mutated peptide-phage (mouse brain [3]): appear to be necessary for brain homing
